Test results published in patent US6541194B2, “Method for the detection of the presence of chemical species known to inhibit a chemiluminescent reaction” (Neogen Corporation, priority 2000, dated 2003).

Biological target: T1, luciferase (Photinus pyralis, UniProt P08659)
T1 construct: purchased Analytical Luminescent Laboratories (ALL), Sparks, Md. #2005
Assay: luciferin-luciferase chemiluminescent reaction with reactant mixture dried on reagent disc
Format: biochemical
Source text: As discussed above, the inherent chemical and mechanical stability of the polymeric material is ideally suited for use as a medium on which to load the chemiluminescent reagents for the practice of the present invention. A number of commercial enterprises market luciferin-luciferase reagent kits for use in chemiluminescent reaction assays. One that the inventors have found to be particularly well suited for the practice of the present invention is the “Firelight®” luciferin-luciferase reagent kit provided by Analytical Luminescent Laboratories (ALL) of Sparks, Md. […] This provides for a greater intensity of luminescence, and faster reaction kinetics.
In the preparation of the reagent discs 48, the reactant concentrate is loaded, preferably drop-wise, onto the Merocel® CF50, obtained in pre-sterilized sheets. The coated sheets are then dried at ambient temperatures under a vacuum, and the reagent discs are cut from the sheets in an appropriate size and shape. Alternatively, discs may be cut first and then loaded with appropriate reagent solution. When loaded in such fashion with the reagent mixture, reagent discs, approximately 6 mm in diameter and approximately 1.5 mm in height, carry approximately 0.5 mg of the dried reactant mixture.
It is recognized in the prior art that trehalose will stabilize delicate materials while they are freeze-dried. […]

T1 sequence (P08659 whole entry): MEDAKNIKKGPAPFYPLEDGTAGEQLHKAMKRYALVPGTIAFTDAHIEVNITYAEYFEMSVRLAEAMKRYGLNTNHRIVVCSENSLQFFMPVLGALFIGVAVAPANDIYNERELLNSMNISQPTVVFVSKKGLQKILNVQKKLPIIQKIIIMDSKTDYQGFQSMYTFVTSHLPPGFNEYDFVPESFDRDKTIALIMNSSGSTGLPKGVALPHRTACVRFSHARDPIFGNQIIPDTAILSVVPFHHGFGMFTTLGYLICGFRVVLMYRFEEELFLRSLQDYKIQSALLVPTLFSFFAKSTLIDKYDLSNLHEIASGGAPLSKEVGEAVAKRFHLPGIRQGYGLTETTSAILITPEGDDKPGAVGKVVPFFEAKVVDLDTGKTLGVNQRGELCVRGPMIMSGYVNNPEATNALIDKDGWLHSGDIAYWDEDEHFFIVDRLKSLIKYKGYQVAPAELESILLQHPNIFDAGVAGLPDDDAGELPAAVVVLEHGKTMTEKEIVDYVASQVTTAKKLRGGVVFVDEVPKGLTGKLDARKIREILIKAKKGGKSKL

SMILES: OC[C@H]1O[C@H](O[C@H]2O[C@H](CO)[C@@H](O)[C@H](O)[C@H]2O)[C@H](O)[C@@H](O)[C@@H]1O [trehalose, a-D-glucopyranosyl-a-D-glucopyranoside]
- observed luminescent intensities versus the same loading of reagents without the trehalose (6 mm×1.5 mm reagent disc, total loading approximately 4 mg, FIG. 12): more than twice
- biochemical activity of the luciferase component of the reagent mixture (trehalose added to loading solution at levels approaching its saturation solubility): up to a doubling, or more
